For assay [1], the target named is T1, 4-chlorobenzoate:CoA ligase (CBL) (Alcaligenes sp. AL3007, UniProt Q8GN86, D402A).
T1 sequence (Q8GN86 1-504 D402A): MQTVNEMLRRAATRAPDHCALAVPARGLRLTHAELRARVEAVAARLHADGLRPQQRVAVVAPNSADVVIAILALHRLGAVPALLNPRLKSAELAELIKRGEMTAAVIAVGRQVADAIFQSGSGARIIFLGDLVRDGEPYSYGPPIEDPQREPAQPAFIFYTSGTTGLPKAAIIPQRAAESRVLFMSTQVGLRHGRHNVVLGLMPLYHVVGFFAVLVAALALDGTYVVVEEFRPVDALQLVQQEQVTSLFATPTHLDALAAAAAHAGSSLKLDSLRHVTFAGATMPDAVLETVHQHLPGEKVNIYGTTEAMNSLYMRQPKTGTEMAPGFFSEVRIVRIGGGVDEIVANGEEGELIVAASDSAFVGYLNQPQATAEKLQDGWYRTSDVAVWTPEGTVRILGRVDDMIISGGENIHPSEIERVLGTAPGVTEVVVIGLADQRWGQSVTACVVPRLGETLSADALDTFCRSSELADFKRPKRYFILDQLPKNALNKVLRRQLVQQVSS
Description: continuous spectrophotometric assay at […] nm, initial velocity. To be noted: 20 μM 4-CB, 10 mM CoA, 15 mM MgCl2, 50 mM K+HEPES pH 7.5, 25 °C. The class given is biochemical.

The target of assay [2] is T2, 4-chlorobenzoate:CoA ligase (CBL) (Alcaligenes sp. AL3007, UniProt Q8GN86, D402P).
T2 sequence (Q8GN86 1-504 D402P): T1 sequence (Q8GN86 1-504 D402A)
Described as above. Type of assay: biochemical. The following applies: 20 μM 4-CB, 10 mM CoA, 15 mM MgCl2, 50 mM K+HEPES pH 7.5, 25 °C.

Regarding `Nc1ncnc2c1ncn2[C@@H]1O[C@H](COP(=O)(O)OP(=O)(O)OP(=O)(O)O)[C@@H](O)[C@H]1O` [ATP, adenosine-5′-triphosphate], the Km in assay [1] worked out at 28.1 ± 0.9 µM; in assay [2], 13.1 ± 0.7 µM.

Values taken from paper PMC2680940 (Biochemistry, 2009).
